This note sets out measurements from patent US20240368104A1, “Novel Dialkoxynaphtho[2,3-C]Furan-1(3H)-One Derivatives and Pharmaceutical Composition For Preventing or Treating Respiratory Disease or SARS-COV-2 Infection Disease, Comprising Same” (priority 2021, published 2024).

The nature of series [1]: in vitro. The settings on record: African green monkey.
Series [2] concerns SARS-COV-2. Put plainly: microbe, parasite or virus in culture. Also on record: SI (Selectivity Index, CC50/IC50): unit not given here. The settings on record: for SI (Selectivity Index, CC50/IC50): SARS-COV-2, values >50 assumed to be 50; for IC50: read-out: SARS-COV-2 inhibition (IC50). Type of series: cell-based.
Where [3] appears, read: Severe acute respiratory syndrome coronavirus 2, Vero cells, 24 hours infection.
Where [4] appears, read: Severe acute respiratory syndrome coronavirus 2, Vero, 24 h.

Where a name gives a salt, the structure may show the parent alone. Read-outs that look alike come from different tables or passages of the source.

Usually IC50 stands for the concentration that inhibits the measured activity by half. In turn, `COc1cc2cc3c(c(-c4cnc(N5CCc6ccccc6[C@@H]5c5ccccc5)nc4)c2cc1OC)C(=O)OC3` [Example 151, (S)-6,7-dimethoxy-9-(2-(1-phenyl-3,4-dihydroisoquinolin-2 (1H)-yl)pyrimidin-5-yl)naphtho[2,3-c]furan-1(3H)-one] showed a CC50 in series [1] of more than 50 µM. For the same molecule, the “SI (Selectivity Index, CC50/IC50)” value in series [2] worked out at 1.0. In addition, in series [2] (setting [3]), the IC50 was more than 50 µM.

Molecule `COc1cc2cc3c(c(N4CCN(c5cc(Cl)nc(SC)n5)CC4)c2cc1OC)C(=O)OC3` [Example 130, 9-(4-(6-chloro-2-(methylthio)pyrimidin-4-yl)pilerazin-1-yl)-6,7-dimethoxynaphtho[2,3-c]furan-1(3H)-one] returned a CC50 in series [1] of more than 50 µM. The “SI (Selectivity Index, CC50/IC50)” value in series [2] stood at 1.0. For the same molecule, the concentration for half-maximal inhibition (IC50) in series [2] (setting [3]) is more than 50 µM.

In turn, `COc1cc2cc3c(c(-c4ccc(F)nc4)c2cc1OC)C(=O)OC3` [Example 35, 9-(6-fluoropyridin-3-yl)-6,7-dimethoxynaphtho[2,3-c]furan-1(3H)-one] gave a CC50 in series [1] of more than 50 µM. Further, in series [2], the “SI (Selectivity Index, CC50/IC50)” value stood at 1.00. Also, in series [2] (setting [3]), the half-maximal inhibitory concentration (IC50) is more than 50 µM.

The molecule `COc1cc2cc3c(c(-c4cnc(N5CCC[C@@H]5CO)nc4)c2cc1OC)C(=O)OC3.Cl` [Example 82, (R)-9-(2-(2-(hydroxymethyl)pyrrolidin-1-yl)pyrimidin-5-yl)-6,7-dimethoxynaphtho[2,3-c]furan-1(3H)-one hydrochloride] gave a CC50 in series [1] of more than 50 µM. Besides, the “SI (Selectivity Index, CC50/IC50)” value in series [2] is listed as 3.93. Moreover, the IC50 in series [2] (setting [4]) amounted to 12.7 µM.

In series [1], `COc1cc2cc3c(c(-c4ccc(N5CCC(Cl)CC5)nc4)c2cc1OC)C(=O)OC3` [Example 142, 9-(6-(4-chloropiperidin-1-yl)pyridin-3-yl)-6,7-dimethoxynaphtho[2,3-c]furan-1(3H)-one] yielded a CC50 of more than 50 µM. For the same molecule, in series [2], the “SI (Selectivity Index, CC50/IC50)” value is 25.00. The IC50 in series [2] (setting [3]) turned out to be 2 µM.

On to `COc1cc2cc3c(c(-c4ccc(N(C)CC(C)C)nc4)c2cc1OC)C(=O)OC3` [Example 181, 9-(6-(isobutyl(methyl)amino)pyridin-3-yl)-6,7-dimethoxynaphtho[2,3-c]furan-1(3H)-one], for which the CC50 in series [1] is more than 50 µM. Further, the “SI (Selectivity Index, CC50/IC50)” value in series [2] is listed as 53.67. Further, the IC50 in series [2] (setting [3]) turned out to be 0.93 µM.

As to `CC[C@H](C)[C@H](N)C(=O)Oc1cc2c(cc1-c1c3c(cc4cc(OC)c(OC)cc14)COC3=O)OCO2` [Example 270, 6-(6,7-dimethoxy-3-oxo-1,3-dihydronaphtho[2,3-c]furan-4-yl)benzo[d][1,3]dioxol-5-yl L-isoleucinate], the CC50 in series [1] is more than 50 µM. The “SI (Selectivity Index, CC50/IC50)” value in series [2] came out at 122.64. Besides, the half-inhibitory concentration (IC50) in series [2] (setting [4]) was determined as 0.41 µM.

In the case of `CCN(CC)CCNc1ncc(-c2c3c(cc4cc(OC)c(OC)cc24)COC3=O)cn1` [Example 58, 9-(2-((2-(diethylamino)ethyl)amino)pyrimidin-5-yl)-6,7-dimethoxynaphtho[2,3-c]furan-1(3H)-one], in series [1], the CC50 is more than 50 µM. Moreover, the “SI (Selectivity Index, CC50/IC50)” value in series [2] is on record as 1.66. In addition, in series [2] (setting [3]), the IC50 worked out at 30.1 µM.

With `COc1cc2cc3c(c(-c4ccc(N(C)CCC5OCCO5)nc4)c2cc1OC)C(=O)OC3` [Example 161, 9-(6-((2-(1,3-dioxolan-2-yl)ethyl)(methyl)amino)pyridin-3-yl)-6,7-dimethoxynaphtho[2,3-c]furan-1(3H)-one], the CC50 in series [1] was more than 50 µM. In series [2], the “SI (Selectivity Index, CC50/IC50)” value stood at 7.74. Besides, in series [2] (setting [3]), the IC50 amounted to 6.46 µM.

Take `COc1cc2cc3c(c(N4C[C@@H](C)O[C@@H](C)C4)c2cc1OC)C(=O)OC3` [Example 2, 9-((2S,6R)-2,6-dimethylmorpholino)-6,7-dimethoxynaphtho[2,3-c]furan-1(3H)-one]: in series [1], the CC50 was more than 50 µM. The “SI (Selectivity Index, CC50/IC50)” value in series [2] worked out at 1.00. Moreover, the half-maximal inhibitory concentration (IC50) in series [2] (setting [3]) was more than 50 µM.

In turn, `CCC(C)N(C)c1ncc(-c2c3c(cc4cc(OC)c(OC)cc24)COC3=O)cn1.Cl` (centres unmarked) [Example 100, 9-(2-(sec-butyl(methyl)amino)pyrimidin-5-yl)-6,7-dimethoxynaphtho[2,3-c]furan-1(3H)-one hydrochloride] had a CC50 in series [1] of more than 50 µM. Moreover, the “SI (Selectivity Index, CC50/IC50)” value in series [2] was 96.21. Also, the IC50 in series [2] (setting [4]) worked out at 0.52 µM.

Molecule `COc1cc2cc3c(c(-c4cc5c(cc4OC(=O)C(C)(C)C)OCO5)c2cc1OC)C(=O)OC3` [Example 276, 6-(6,7-dimethoxy-3-oxo-1,3-dihydronaphtho[2,3-c]furan-4-yl)benzo[d][1,3]dioxol-5-yl pivalate] came in with a CC50 in series [1] of more than 50 µM. For the same molecule, in series [2], the “SI (Selectivity Index, CC50/IC50)” value came out at 1.00. Besides, the concentration for half-maximal inhibition (IC50) in series [2] (setting [3]) is more than 50 µM.

The molecule `COc1cc2cc3c(c(-c4ccc(N5C[C@@H](C)O[C@@H](C)C5)nc4)c2cc1OC)C(=O)OC3` [Example 121, 9-(6-((2S,6R)-2,6-dimethylmorpholino)pyridin-3-yl)-6,7-dimethoxynaphtho[2,3-c]furan-1(3H)-one] gave a CC50 in series [1] of more than 50 µM. In addition, the “SI (Selectivity Index, CC50/IC50)” value in series [2] is recorded as 21.51. In addition, the IC50 in series [2] (setting [3]) came to 2.32 µM.

Molecule `COc1cc2cc(CO)c(C(=O)NC(C)C)c(-c3cc4c(cc3O)OCO4)c2cc1OC` [Example 228, 1-(6-hydroxybenzo[d][1,3]dioxol-5-yl)-3-(hydroxymethyl)-N-isopropyl-6,7-dimethoxy-2-naphthamide] displayed a CC50 in series [1] of more than 50 µM. The “SI (Selectivity Index, CC50/IC50)” value in series [2] is reported as 1.50. For the same molecule, in series [2] (setting [3]), the IC50 stood at 33.4 µM.

Consider `COc1cc2cc3c(c(-c4cnc(N5CCCC(O)C5)nc4)c2cc1OC)C(=O)OC3.Cl` (centres unmarked) [Example 80, 9-(2-(3-hydroxyperidin-1-ylpyrimidin-5-yl)-6,7-dimethoxynaphtho[2,3-c]furan-1(3H)-one hydrochloride], for which, in series [1], the CC50 was more than 50 µM. In series [2] (setting [4]), the IC50 came to 11.9 µM.

Molecule `COc1cc2cc3c(c(-c4ccc(N(C)CC5CCCO5)nc4)c2cc1OC)C(=O)OC3` (centres unmarked) [Example 192, 6,7-dimethoxy-9-(6-(methyl((tetrahydrofuran-2-yl)methyl)amino)pyridin-3-yl)naphtho[2,3-c]furan-1(3H)-one] registered a CC50 in series [1] of more than 50 µM. For the same molecule, in series [2], the “SI (Selectivity Index, CC50/IC50)” value is listed as 10.08. The half-inhibitory concentration (IC50) in series [2] (setting [3]) came out at 4.96 µM.

As for `COc1cc2cc3c(c(-c4cc5c(cc4OC(=O)OC(C)C)OCO5)c2cc1OC)C(=O)OC3` [Example 98, 6-(6,7-dimethoxy-3-oxo-1,3-dihydronaphtho[2,3-c]furan-4-yl)benzo[d][1,3]dioxol-5-yl isopropyl carbonate], the CC50 in series [1] is more than 50 µM. In series [2], the “SI (Selectivity Index, CC50/IC50)” value amounted to 3.18. In series [2] (setting [3]), the 50% inhibitory concentration (IC50) turned out to be 15.7 µM.

`COc1cc2cc3c(c(-c4ccc5c(N6CCNCC6)ccnc5c4)c2cc1OC)C(=O)OC3` [Example 152, 6,7-dimethoxy-9-(4-(piperazin-1-yl)quinolin-7-yl)naphtho[2,3-c]furan-1(3H)-one] had a CC50 in series [1] of more than 50 µM. In series [2], the “SI (Selectivity Index, CC50/IC50)” value came to 2.10. Further, the IC50 in series [2] (setting [3]) came to 23.8 µM.

Molecule `COc1cc2cc3c(c(-c4ccc(N(C)c5nnc(C)o5)nc4)c2cc1OC)C(=O)OC3` [Example 231, 6,7-dimethoxy-9-(6-(methyl(5-methyl-1,3,4-oxadiazol-2-yl)amino)pyridin-3-yl)naphtho[2,3-c]furan-1(3H)-one] came in with a CC50 in series [1] of more than 50 µM. The “SI (Selectivity Index, CC50/IC50)” value in series [2] is on record as 1.00. The half-maximal inhibitory concentration (IC50) in series [2] (setting [3]) is more than 50 µM.

On to `COCCOc1cncc(-c2c3c(cc4cc(OC)c(OC)cc24)COC3=O)c1` [Example 173, 6,7-dimethoxy-9-(5-(2-methoxyethoxy)pyridin-3-yl)naphtho[2,3-c]furan-1(3H)-one], for which the CC50 in series [1] was more than 50 µM. Further, in series [2], the “SI (Selectivity Index, CC50/IC50)” value came to 1.0. In series [2] (setting [3]), the IC50 is more than 50 µM.

Consider `COc1cc2cc3c(c(-c4ccc5c(c4)N(C)CCC5)c2cc1OC)C(=O)OC3` [Example 170, 6,7-dimethoxy-9-(1-methyl-1,2,3,4-tetrahydroquinolin-7-yl)naphtho[2,3-c]furan-1(3H)-one], for which the CC50 in series [1] was more than 50 µM. For the same molecule, the “SI (Selectivity Index, CC50/IC50)” value in series [2] is 24.25. Further, the IC50 in series [2] (setting [3]) came to 2.06 µM.

In the case of `CCN(C)c1ncc(-c2c3c(cc4cc(OC)c(OC)cc24)COC3=O)cn1` [Example 106, 9-(2-(ethyl(methyl)amino)pyrimidin-5-yl)-6,7-dimethoxynaphtho[2,3-c]furan-1(3H)-one hydrochloride], in series [1], the CC50 is more than 50 µM. Also, the “SI (Selectivity Index, CC50/IC50)” value in series [2] came to 297.58. Further, the IC50 in series [2] (setting [4]) stood at 0.17 µM.

Take `COc1cc2cc3c(c(-c4ccc5cc(C(F)(F)F)cc(O)c5c4)c2cc1OC)C(=O)OC3` [Example 153, 9-(8-hydroxy-6-(trifluoromethyl)naphthalen-2-yl)-6,7-dimethoxynaphtho[2,3-c]furan-1(3H)-one]: the CC50 in series [1] was more than 50 µM. Moreover, in series [2], the “SI (Selectivity Index, CC50/IC50)” value stood at 1.0. The IC50 in series [2] (setting [3]) was more than 50 µM.

The molecule `CCN(C)c1ccc(-c2c3c(cc4cc(OC)c(OC)cc24)COC3=O)cn1` [Example 178, 9-(6-(ethyl(methyl)amino)pyridin-3-yl)-6,7-dimethoxynaphtho[2,3-c]furan-1(3H)-one] returned a CC50 in series [1] of more than 50 µM. The “SI (Selectivity Index, CC50/IC50)” value in series [2] was found to be 1323.43. In addition, the 50% inhibitory concentration (IC50) in series [2] (setting [3]) was found to be 0.04 µM.

As for `COc1cc2cc3c(c(-c4cccc5ncccc45)c2cc1OC)C(=O)OC3` [Example 132, 6,7-dimethoxy-9-(quinolin-5-yl)naphtho[2,3-c]furan-1(3H)-one], the CC50 in series [1] was more than 50 µM. In addition, in series [2], the “SI (Selectivity Index, CC50/IC50)” value is reported as 1.0. In series [2] (setting [3]), the half-inhibitory concentration (IC50) is more than 50 µM.

The molecule `CCCCN(C)c1ccc(-c2c3c(cc4cc(OC)c(OC)cc24)COC3=O)cn1` [Example 180, 9-(6-(butyl(methyl)amino)pyridin-3-yl)-6,7-dimethoxynaphtho[2,3-c]furan-1(3H)-one] registered a CC50 in series [1] of more than 50 µM. Also, in series [2], the “SI (Selectivity Index, CC50/IC50)” value turned out to be 73.59. The concentration for half-maximal inhibition (IC50) in series [2] (setting [3]) was found to be 0.68 µM.
